Data from patent US12528792B2, “Sulfonamide compounds and the use thereof in the treatment of cancer” (TROBIO THERAPEUTICS PTY LTD, priority 2019, dated 2026).
pIC50: −log10 of the molar value.

Columns and labels:
[1] = target: T1, Tpm3.1-containing actin microfilaments in SK-N-SH neuroblastoma cells (Homo sapiens, UniProt P06753); assay: Imaging and quantitation of Tpm3.1 mCherry and 488-Atto-Phalloidin actin filaments; type: cell-based; conditions: 24 hours post-treatment, two concentrations, FIG. 2 and FIG. 3
T1 construct: expressed in transfected cells; host or cells: SK-N-SH neuroblastoma cells
T1 sequence (P06753 1-248 isoform P06753-2): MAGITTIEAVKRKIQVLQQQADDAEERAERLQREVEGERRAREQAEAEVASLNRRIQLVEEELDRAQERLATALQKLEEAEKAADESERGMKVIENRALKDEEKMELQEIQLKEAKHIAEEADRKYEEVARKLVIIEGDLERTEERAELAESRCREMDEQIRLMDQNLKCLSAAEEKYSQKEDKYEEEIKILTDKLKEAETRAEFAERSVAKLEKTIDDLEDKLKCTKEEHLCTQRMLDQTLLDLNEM
Experimental: The ability of compounds 24, 26 and 143 to disrupt Tpm3.1-containing actin microfilaments was investigated in SK—N—SH neuroblastoma cells that express Tpm3.1 labelled with the mCherry fluorophore. Cells were seeded at 3×10^4 cells per well in a volume of 1000 μL complete media onto a 12 well plate containing 13 mm coverslips and left to plate down for 24 hours prior to treatment. Cells were then treated with DMSO and two concentrations of the test compounds. 24 hours post-treatment, cells were fixed with 16% paraformaldehyde (PBS) and stained with 488-Atto-Phalloidin to visualise the actin filament bundles. Single plane images were obtained using the Olympus IX83 epi-fluorescence microscope. Ten fields of view were collected for both Tpm3.1 mCherry fluorophore (FIG. 2) and 488-Atto-Phalloidin (FIG. 3) with each treatment condition.
Quantitation of either Tpm3.1 mCherry filaments or 488-Atto-Phalloidin filaments was performed using ImageJ 1.52p software (ImageJ, NIH). The mean pixel intensity from a cell was measured by using a line across the entire cell cytoplasmic area above or below the nuclear region. The line was made to cross the filament bundles at a 90° angle for the measurement rather than run along a single filament. A total of n=100 cells were measured from ten fields of view. […]

[2] = target: F-actin/Tpm3.1 (Homo sapiens, UniProt P06753); assay: Actin depolymerisation assay; type: biochemical; conditions: 50 μmol/L test compound, FIG. 1
Experimental: A 12 μmol/L solution of labelled F-actin was prepared by polymerising the monomeric actin (35% pyrene labelled Rabbit Muscle (Cytoskeleton Inc)) into filaments in the presence of buffer T (100 mmol/L NaCl; 10 mmol/L Tris HCl PH 7.5; 2 mmol/L MgCl2; 1 mmol/L EGTA; 0.5 mmol/L DTT) with added ATP (0.2 mmol/L), for 1 hour in the dark at room temperature. Tpm3.1 (10 μmol/L) was reduced in buffer T containing 1 mmol/L DTT at 70° C. for 6 minutes and centrifuged at 60,000 rpm for 30 minutes to remove nonreduced dimers. […] Duplicate samples were diluted 12-fold using an F-actin polymerisation buffer (100 mmol/L NaCl; 10 mmol/L Tris HCl PH 7; 2 mmol/L MgCl2; 1 mmol/L EGTA; 0.2 mmol/L ATP; 1 mmol/L DTT) and the depolymerisation rates of F-actin alone, F-actin/Tpm3.1, and the F-actin/Tpm3.1/test compound filament complex were measured using a Costar 3915 fluorescence plate reader (407 nm) at 36-second intervals for 160 minutes at room temperature. Data were normalized to the initial fluorescence value and polymerisation curves of duplicate samples were fitted to a two-phase exponential decay model using OriginPro 9.1 (OriginLab) (FIG. 1A). Percent polymerisation was determined at t160 as a function of to (100%) (FIG. 1B, p<0.0001).

[3] = test system: A2780 ovarian cancer cells; assay: In vitro growth inhibition assay, Alamar Blue, single agent IC50; type: cell-based; conditions: Homo sapiens, 72 h drug exposure, Alamar Blue, 384-well (26*: 96-well plate format), read-out: Single-agent IC50
Experimental: In vitro growth inhibition assays were performed as technical triplicate in two independent experiments and cell viability was assessed by Alamar Blue assay readout. Briefly, cells in logarithmic phase growth were seeded in 384-well plates in a 50 μL/well assay volume. Cells were seeded at 1,200 cells/well using a Multidrop 384 (Thermo Scientific) and allowed to adhere at 37° C. with 5% CO2, in a humidified atmosphere (LiCONIC incubator). After 24 hours incubation, test compounds, positive control (20 μM Thonzonium bromide, 100% kill) and vehicle only (0.4% DMSO) were added into wells of each assay plate using a Tecan HP D300 Digital Dispenser in technical triplicate under minimum light. Following 72 hours drug exposure, metabolic activity was detected by addition of 10% (v/v) Alamar Blue reagent to each assay well using a Multidrop Cambi (Thermo Scientific) and determined by measurement of fluorescence intensity (excitation 555 nm, emission 585 nm) using an EnSpire (Perkin Elmer) plate reader. Readings were performed at 0 hour (background) and after 6 hours alamar blue incubation at 37° C.
Each drug was tested as a 10-point concentration series with two-fold serial dilutions of each drug. The concentration series for compounds 6 and 8 was 100, 50, 25, 12.5, 6.25, 3.125, 1.563, 0.781, 0.391 and 0.195 μM and for compounds 24, 43 and 48 was 50, 25, 12.5, 6.25, 3.125, 1.563, 0.781, 0.391, 0.195 and 0.098 μM for the two independent experiments. The concentration series for vinorelbine and paclitaxel was 100, 50, 25, 12.5, 6.25, 3.125, 1.5625, 0.781, 0.391 and 0.195 nM. Thonzonium bromide (20 μM) and 0.4% DMSO were used as positive and vehicle controls, respectively. The IC50 value was calculated by derivation of the best-fit line using a sigmoidal dose response model (Activity Base Software Suite, IDES).
Activity Base software suite (IDES, version 8.3.0.175) was used for data analysis. Cell survival is expressed as a percentage of viable cells. IC50 concentrations were calculated by derivation of the best-fit line using a sigmoidal dose response model with technical triplicate data points.

[4] = test system: SK-N-SH neuroblastoma cells; assay: Cytotoxicity assay, MTS viability; type: cell-based; conditions: Homo sapiens, 72 hours
Outline: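 SK-N-SH cells, 2×10^3/well in DMEM with 10% FBS at 37 °C, treated with 1:2 compound series from 100 μM; MTS viability read after 72 hours. Viability normalised to vehicle control; EC50 taken from dose-response curves.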

pIC50 [3]: 4.90
Structure (SMILES): O=C(Nc1ccc(C(F)(F)F)cc1)c1ccn(S(=O)(=O)c2ccc3[nH]ccc3c2)c1 [Compound 26, 1-((1H-indol-5-yl)sulfonyl)-N-(4-(trifluoromethyl)phenyl)-1H-pyrrole-3-carboxamide]
Disruption of Tpm3.1-containing actin microfilaments [1]: disrupt Tpm3.1-containing actin microfilaments in a dose-dependent manner
Inhibition of Tpm3.1 protection of actin filaments from depolymerisation [2]: inhibit the ability of Tpm3.1 to protect actin filaments from depolymerisation
pIC50 [4]: 5.10
